“Also recorded” adds a separate entry of the source.
What was measured:
CCL-2 = CCL-2 concentration in supernatant of lymphocytes under heat stress load (ELISA); type: cell-based, human
Method: 10 mL of human peripheral blood was collected and anti-coagulated with heparin, and 10 mL of PBS(−) was added thereto and stirred. 15 mL of Lymphocyte Separation Medium 1077 (PromoCell GmbH) was layered thereon so as not to mix blood thereinto, followed by blood separation at 1600 rpm for 30 minutes in a centrifuge. The mononuclear cell layer thus separated was collected into a dropper, added to 20 mL of a culture medium, and centrifuged at 1500 rpm for 5 minutes in a centrifuge. The supernatant was removed, and then, 20 mL of a culture solution was added to the cells and stirred. The cells were centrifuged again at 1500 rpm for 5 minutes in a centrifuge. The supernatant was removed, and then, 10 mL of a culture medium was added to the cells and stirred. The whole amount was added to a 10-cm dish and incubated at 37° C. for 1 hour in a 5% CO2 environment. […] The solution with the adjusted lymphocyte density was inoculated at 4 mL/well to 2 wells of each 6-well plate. […] Then, the supernatant was recovered into a 1.5-mL Eppendorf tube and centrifuged at 8000 rpm for 5 minutes in a centrifuge. […]
The solution was removed, and each well was washed four times. […] TMB Microwell Peroxidase Substrate was added at 100 μL/well, followed by the absorbance measurement of the reaction solution in a plate reader at 450 nm.

[1] = tested on: human vascular endothelial cells (HUVECs); assay: DiOC6 / PI staining and flow cytometry of HUVECs under heat stress load; type: cell-based; conditions: heat stress load 40° C. for 2 days, flow cytometry, vs DMSO
Method: Two days later, the culture solution of each well was removed with an aspirator. […] The supernatant was removed, and then, 5 mL of a culture medium at 37° C. was added to the cells and stirred. After the stirring, DiOC6 (final concentration: 80 nM) was added to each 15-mL tube and reacted at the same temperature as the culture temperature for 30 minutes.
The supernatant was removed, and then, 1 mL of a culture medium was added to the cells, and 2 μL of PI (Sigma-Aldrich Co. LLC) was added. The cells thus supplemented were transferred to a FACS tube and measured in a flow cytometer (BD).
In order to quantify the effects, the cytotoxicity suppressive effects of auraptene (component A) and tangeretin (component T) inhibiting the cell death caused by the load of heat stress were quantified using DiOC6 staining and flow cytometry as described above. The DiOC6 dye is a reagent for measuring mitochondrial activity and is a reagent that can perform measurement based on the attenuation of the amount of fluorescence by cytotoxicity (cell death, etc.).

[2] = tested on: human vascular endothelial cells (HUVECs)
Method: Then, 2 mL of trypsin/EDTA was added to the cells, and the cells were detached by incubation at 37° C. in a 5% CO2 environment. After the cell detachment, 5 mL/dish of a culture medium was added, and the cells were transferred to a 15-mL tube and centrifuged at 1200 rpm for 5 minutes in a centrifuge. The supernatant was removed, and then, the number of cells was adjusted to a cell density of 5×10^4 cells/mL using a cell counting kit by the addition of 5 mL of a culture medium. Then, two 6-well plates were used, and the solution with the adjusted HUVEC density was inoculated at 4 mL/well to 3 wells of each plate. Each phytochemical component was added at 4 μL (final concentration: 10 μM)/well to one well of each plate. Also, a phytochemical dissolving solution DMSO was added at 4 μL/well to the remaining wells to prepare a control. […]
Serial dilutions of auraptene were added to the cells, and the cell death of the HUVECs caused by heat stress was observed by crystal violet staining.

[3] = tested on: fat droplets in human vascular endothelial cells (HUVECs); assay: Intracellular fat droplets, BODIPY staining, confocal microscopy; type: cell-based
Method: Then, nine 35-mm dishes were provided, and 2 mL/dish of the solution with the adjusted HUVEC density was inoculated. Auraptene (10 mM) and tangeretin (10 mM) were each added at 2 μL (final concentration: 10 μM)/dish to three dishes. Also, DMSO was added at 2 μL/dish to the remaining 3 dishes to prepare a control.
The supernatant of the HUVECs cultured in each 35-mm dish was removed, and 2 mL/dish of 4% paraformaldehyde in a phosphate buffer solution was added. The cells were left standing at room temperature for 1 hour for cell fixation. The solution was removed, and then, the cells were rinsed twice. 1 mL/dish of BODIPY diluted 2000-fold with a FACS buffer was added, and the cells were left standing at room temperature for 30 minutes in the dark for reaction.
The solution was removed, and then, the cells were rinsed twice. Two drops of Diamond Antifade Mountant with DAPI were added to the cells, and a round glass cover was put on the cells, followed by fluorescence photographing under a confocal laser scanning microscope.

[4] = tested on: human vascular endothelial cells (HUVECs); assay: Suppression of cell death by addition of medium chain fatty acid, crystal violet / phase contrast microscopy; type: cell-based; conditions: auraptene 5 μM used alone, printed at 37° C. (FIG. 19A)
[5] = Table 2 summary, HUVECs 40° C., 37° C. as comparative control

## CC(C)=CCC/C(C)=C/COc1ccc2ccc(=O)oc2c1 [auraptene, 7-geranyloxycoumarin]
CCL-2; peripheral blood lymphocytes sample A, 40° C., auraptene 10 μM, non-addition 61 ± 0.2
  CCL-2 sample A: 32 ± 1.7 pg/mL
CCL-2; peripheral blood lymphocytes under heat stress load, vs DMSO, p<0.05
  production of CCL-2: significantly suppressed
[1]
  number of DiOC6 staining-positive cells (suppression of cytotoxicity, cell death): increased the number of DiOC6 staining-positive cells
[2]; HUVECs cultured at 40° C. for 3 days, vs DMSO
  cell survival by crystal violet staining: evidently increased cell survival
[2]; HUVECs, 40° C. for 3 days, crystal violet staining
  concentration at which the cell death suppressive effect was confirmed (value in brackets): 600 nM
[2]; HUVECs, 40° C. for 3 days, serial dilutions, crystal violet staining
  concentration at which the cell death suppressive effect was confirmed: 0.6 µM
[2]; [5]
  Cytotoxicity (cell death): Suppressed
[3]; HUVECs, 40° C. for 2 days, 10 μM, BODIPY, vs DMSO
  amount of fat droplets under heat stress load: decrease in the amount of fat droplets; also recorded: decreased the amount of fat droplets
[3]; HUVECs, usual culture (37° C.), 10 μM, vs DMSO
  amount of fat droplets at usual culture: no change in the amount of fat droplets
[3]; [5]
  Amount of fat droplets: Decreased
[4]
  overall number of cells, auraptene alone: increase the overall number of cells

— patent US11559512B2, “Composition for prevention, alleviation, and/or treatment of heat illness” (priority 2017, dated 2023)
